Laboratory results reported in patent US6075057A, “Inhibition of carbohydrates metabolism by quinone compounds” (priority 1997, dated 2000).
pIC50: −log10 of the molar value.

Experiments:
[1] = system: β-glucosidase (EC 3.2.1.21); assay: Initial screening assay for enzyme inhibition, β-glucosidase; assay type: biochemical, almonds; details: 20 μM inhibitor, 2% MeOH
Experimental: (§1) Optically pure enantiomers of avarol were synthetically prepared. A survey of potential inhibitory activity by avarol against twelve glycosidases was performed according to general procedures^15 (see experimental section). The enzymes tested and their biological sources are listed in Table 1 along with any pertinent references found for a given enzyme. In order to determine a working range for enzyme and substrate concentrations in which the rate of product formation was linear and steady-state kinetics were applicable, initial rate studies with varying substrate concentrations were performed in the absence of inhibitor. The Michaelis constants (Km 's) and Vmax values for these enzymes were determined from these plots using standard graphical analysis procedures as described in ref. 17 and are summarized in Table 2.
Enzymatic Assays. […] Reactions were monitored at 400 nm (the absorbance of the p-nitrophenol product, ε=3204.5 M^-1 cm^-1) for a given amount of time and the initial rates were calculated and expressed as μmols p-nitrophenol formed per unit enzyme per second. Absportion readings for control reactions were corrected for the small baseline absorbance at time zero. Small discrepancies between time zero absorbance readings in a given inhibition assay and a time zero reading in a control assay were used to correct the overall absorbance change calculated in the inhibition assay. […]

[2] = target: T1, α-glucosidase (EC 3.2.1.20, type IV) (Saccharomyces cerevisiae, UniProt P53341); assay: Initial screening assay for enzyme inhibition, α-glucosidase; assay type: biochemical, brewer's yeast; details: for remaining activity at 10 µM: α-glucosidase, 10 μM inhibitor, 2% MeOH, read-out: % Enzyme activity relative to control
T1 construct: purchased Sigma; host or cells: brewer's yeast
T1 sequence (P53341 whole entry): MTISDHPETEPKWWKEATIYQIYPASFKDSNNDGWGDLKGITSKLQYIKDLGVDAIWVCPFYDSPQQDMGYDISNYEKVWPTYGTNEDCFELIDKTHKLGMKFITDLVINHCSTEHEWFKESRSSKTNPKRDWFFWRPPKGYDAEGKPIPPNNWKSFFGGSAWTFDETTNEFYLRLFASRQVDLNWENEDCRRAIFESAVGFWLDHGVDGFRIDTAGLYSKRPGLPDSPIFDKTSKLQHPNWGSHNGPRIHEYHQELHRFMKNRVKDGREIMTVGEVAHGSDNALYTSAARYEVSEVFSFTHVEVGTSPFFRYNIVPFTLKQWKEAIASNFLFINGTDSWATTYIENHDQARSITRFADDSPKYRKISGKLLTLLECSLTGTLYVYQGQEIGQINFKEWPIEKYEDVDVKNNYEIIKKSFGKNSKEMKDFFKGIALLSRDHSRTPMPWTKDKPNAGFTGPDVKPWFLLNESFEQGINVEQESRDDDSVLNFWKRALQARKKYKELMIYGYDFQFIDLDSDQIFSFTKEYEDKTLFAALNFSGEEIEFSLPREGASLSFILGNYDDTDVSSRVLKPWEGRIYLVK
Experimental: as §1
Initial screening assays with the enantiomeric avarols indicated significant activity by these compounds against only two of the twelve enzymes studies. […] This can occur when the two species compete for the same site or nearby sites on the enzyme. The equilibria that describe competitive inhibition are shown below. [drawing 3]
(§2) Enzymatic Assays. Piperazine-N,N'-bix-(2-ethanesulfonic acid)(PIPES) buffer, enzymes, and substrates were purchased from Sigma and used as received. Buffer solutions and enzymes (desiccated) were stored at 4° C. p-Nitrophenyl glycoside substrates were stored desiccated at -20° C. Enzyme inhibition assays and initial rate studies were carried out with the appropriate p-nitrophenyl glycoside substrates following the general procedure of Kajimoto et al., J. Am. Chem. Soc. 113:6187 (1991) with the exception that amyloglucosidase (EC 3.2,1.3, Asp. niger) was assayed following the method of Saul et al., Arch. Biochem. Biophys. 221:593 (1983). Assays were performed in a Perkin-Elmer Lambda Array 3840 Spectrophotometer using the built-in drive method (resolution=0.25, average=8) in a quartz cuvette (1 cm pathlength). Background absorption spectra were acquired using millipore filtered water as medium. Steady-state kinetics were maintained by adjusting the amount of enzyme used in each assay so that less than 10% of the substrate was converted to product for the duration of the reaction. Reactions were monitored at 400 nm (the absorbance of the p-nitrophenol product, ε=3204.5 M^-1 cm^-1) for a given amount of time and the initial rates were calculated and expressed as μmols p-nitrophenol formed per unit enzyme per second. Absportion readings for control reactions were corrected for the small baseline absorbance at time zero. Small discrepancies between time zero absorbance readings in a given inhibition assay and a time zero reading in a control assay were used to correct the overall absorbance change calculated in the inhibition assay. Inhibitors were dissolved in uv-grade absolute methanol.
(§3) Typical assay: A 1.5-mL quartz cuvette was charged with 940 μL of PIPES-NaOAc buffer solution (pH 6.56), 20 μL of inhibitor solution, and 20 μL of enzyme solution. The result was mixed well and then equilibrated at 37° C. for two minutes. 20 μL of the appropriate p-nitrophenyl glycoside solution was then added to initiate the reaction with rapid mixing. The reaction was monitored at 400 nm for 1 min and the absorbance change was used to calculate the initial hydrolysis rate. Lineweaver-Burk plots were constructed by repeating this procedure with varying substrate and inhibitor concentrations.

[3] = system: β-N-acetylglucosaminidase (EC 3.2.1.30); assay: Initial screening assay for enzyme inhibition, β-N-acetylglucosaminidase; assay type: biochemical, bovine kidney; details: 2% MeOH
Experimental: as §1
as §2, with “Inhibitors were dissolved in uv-grade absolute methanol.” left out
(§4) Typical assay: A 1.5-mL quartz cuvette was charged with 940 μL of PIPES-NaOAc buffer solution (pH 6.56), 20 μL of inhibitor solution, and 20 μL of enzyme solution. […] The reaction was monitored at 400 nm for 1 min and the absorbance change was used to calculate the initial hydrolysis rate. […]

[4] = target: T2, β-galactosidase (EC 3.2.1.23, grade XI) (Aspergillus oryzae, UniProt Q2UCU3); assay: Initial screening assay for enzyme inhibition, β-galactosidase (Asp. oryzae); assay type: biochemical; details: 2% MeOH, read-out: % Enzyme activity relative to control
T2 construct: purchased Sigma; host or cells: Aspergillus oryzae
T2 sequence (Q2UCU3 19-1005): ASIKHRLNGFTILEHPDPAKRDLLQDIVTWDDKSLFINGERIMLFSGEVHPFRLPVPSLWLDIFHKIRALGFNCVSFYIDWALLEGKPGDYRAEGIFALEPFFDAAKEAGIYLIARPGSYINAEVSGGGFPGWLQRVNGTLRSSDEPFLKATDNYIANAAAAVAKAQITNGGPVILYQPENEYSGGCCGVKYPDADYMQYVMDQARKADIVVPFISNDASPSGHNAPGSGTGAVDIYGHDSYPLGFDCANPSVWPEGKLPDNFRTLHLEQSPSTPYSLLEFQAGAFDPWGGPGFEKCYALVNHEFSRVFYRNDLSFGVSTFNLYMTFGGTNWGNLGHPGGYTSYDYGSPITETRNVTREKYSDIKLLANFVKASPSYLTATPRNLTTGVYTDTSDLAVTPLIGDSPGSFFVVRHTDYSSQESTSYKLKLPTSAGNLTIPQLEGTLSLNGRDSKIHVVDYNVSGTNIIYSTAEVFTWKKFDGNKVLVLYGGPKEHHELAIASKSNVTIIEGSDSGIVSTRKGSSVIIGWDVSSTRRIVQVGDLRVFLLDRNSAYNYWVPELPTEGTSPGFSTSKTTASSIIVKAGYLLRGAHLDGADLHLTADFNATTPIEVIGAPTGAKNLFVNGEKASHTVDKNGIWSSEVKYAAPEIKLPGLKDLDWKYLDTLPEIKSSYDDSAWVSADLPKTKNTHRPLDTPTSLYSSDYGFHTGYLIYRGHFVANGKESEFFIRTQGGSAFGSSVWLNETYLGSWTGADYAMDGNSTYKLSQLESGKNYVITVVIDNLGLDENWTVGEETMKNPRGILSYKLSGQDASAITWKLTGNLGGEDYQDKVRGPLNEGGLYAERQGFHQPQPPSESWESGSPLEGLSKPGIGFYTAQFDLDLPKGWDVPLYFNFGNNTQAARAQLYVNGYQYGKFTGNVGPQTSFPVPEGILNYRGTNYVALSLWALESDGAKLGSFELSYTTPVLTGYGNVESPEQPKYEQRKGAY
Experimental: as §1
as §2, with “Inhibitors were dissolved in uv-grade absolute methanol.” left out
as §4

[5] = target: T3, β-galactosidase (EC 3.2.1.23) (Aspergillus niger, UniProt P29853); assay: Initial screening assay for enzyme inhibition, β-galactosidase (Asp. niger); assay type: biochemical; details: 2% MeOH, read-out: % Enzyme activity relative to control
T3 construct: purchased Sigma; host or cells: Aspergillus niger
T3 sequence (P29853 20-1006): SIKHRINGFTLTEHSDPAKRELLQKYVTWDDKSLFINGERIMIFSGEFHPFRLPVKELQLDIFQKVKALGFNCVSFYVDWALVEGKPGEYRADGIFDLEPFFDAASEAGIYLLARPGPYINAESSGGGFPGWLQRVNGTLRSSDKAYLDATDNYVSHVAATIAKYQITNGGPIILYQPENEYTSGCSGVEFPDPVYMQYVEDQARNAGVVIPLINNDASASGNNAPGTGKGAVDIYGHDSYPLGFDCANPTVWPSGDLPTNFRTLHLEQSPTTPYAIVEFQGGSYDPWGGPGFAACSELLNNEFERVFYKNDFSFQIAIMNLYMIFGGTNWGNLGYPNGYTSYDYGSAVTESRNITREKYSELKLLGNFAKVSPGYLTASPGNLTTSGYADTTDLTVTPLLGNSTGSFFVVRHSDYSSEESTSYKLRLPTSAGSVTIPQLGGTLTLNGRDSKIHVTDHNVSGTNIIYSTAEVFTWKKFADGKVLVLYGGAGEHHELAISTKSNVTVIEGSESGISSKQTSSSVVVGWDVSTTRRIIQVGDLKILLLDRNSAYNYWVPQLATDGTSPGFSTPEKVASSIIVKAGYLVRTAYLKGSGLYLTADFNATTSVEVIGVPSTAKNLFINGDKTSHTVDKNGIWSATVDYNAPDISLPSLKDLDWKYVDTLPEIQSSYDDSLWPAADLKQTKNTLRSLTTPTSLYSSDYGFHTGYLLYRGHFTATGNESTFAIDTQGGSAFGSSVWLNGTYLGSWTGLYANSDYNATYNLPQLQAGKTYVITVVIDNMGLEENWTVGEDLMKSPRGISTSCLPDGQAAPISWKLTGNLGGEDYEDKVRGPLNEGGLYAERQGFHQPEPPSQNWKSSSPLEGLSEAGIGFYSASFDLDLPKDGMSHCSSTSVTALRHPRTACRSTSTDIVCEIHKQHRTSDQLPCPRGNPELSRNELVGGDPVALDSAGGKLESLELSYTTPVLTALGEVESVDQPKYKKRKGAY
Experimental: as §1
as §2, with “Inhibitors were dissolved in uv-grade absolute methanol.” left out
as §4

[6] = target: T4, α-L-fucosidase (EC 3.2.1.51) (Bos taurus, UniProt Q2KIM0); assay: Initial screening assay for enzyme inhibition, α-L-fucosidase; assay type: biochemical, bovine kidney; details: α-L-fucosidase, 2% MeOH, read-out: % Enzyme activity relative to control
T4 construct: purchased Sigma; host or cells: bovine kidney
T4 sequence (Q2KIM0 23-468): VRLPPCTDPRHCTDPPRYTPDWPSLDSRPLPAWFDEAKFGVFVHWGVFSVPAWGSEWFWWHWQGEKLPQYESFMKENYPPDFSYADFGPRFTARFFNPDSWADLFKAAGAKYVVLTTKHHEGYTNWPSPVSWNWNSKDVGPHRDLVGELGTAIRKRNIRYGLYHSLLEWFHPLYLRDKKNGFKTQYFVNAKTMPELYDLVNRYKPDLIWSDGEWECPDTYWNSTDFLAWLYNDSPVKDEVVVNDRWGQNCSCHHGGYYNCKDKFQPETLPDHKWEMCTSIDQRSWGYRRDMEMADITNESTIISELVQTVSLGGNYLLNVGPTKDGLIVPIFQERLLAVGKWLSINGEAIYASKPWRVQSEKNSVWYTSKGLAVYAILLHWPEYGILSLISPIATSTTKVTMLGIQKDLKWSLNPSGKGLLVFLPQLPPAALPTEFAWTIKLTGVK
Experimental: as §1
as §2, with “Inhibitors were dissolved in uv-grade absolute methanol.” left out
as §4

[7] = target: T5, α-galactosidase (EC 3.2.1.22) (Coffea arabica, UniProt Q42656); assay: Initial screening assay for enzyme inhibition, α-galactosidase (green coffee beans); assay type: biochemical; details: α-galactosidase (green coffee beans), 2% MeOH, read-out: % Enzyme activity relative to control
T5 construct: purchased Sigma; host or cells: green coffee beans
T5 sequence (Q42656 16-378): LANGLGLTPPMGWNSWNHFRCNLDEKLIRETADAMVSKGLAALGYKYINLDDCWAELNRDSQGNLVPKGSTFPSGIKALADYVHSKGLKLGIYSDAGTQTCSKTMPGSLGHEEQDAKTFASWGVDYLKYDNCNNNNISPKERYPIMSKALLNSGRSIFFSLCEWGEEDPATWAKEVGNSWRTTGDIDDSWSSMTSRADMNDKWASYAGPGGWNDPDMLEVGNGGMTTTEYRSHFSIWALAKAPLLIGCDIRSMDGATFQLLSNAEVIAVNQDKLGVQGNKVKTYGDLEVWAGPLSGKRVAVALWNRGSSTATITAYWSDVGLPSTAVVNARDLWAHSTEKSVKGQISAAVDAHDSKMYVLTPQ
Experimental: as §1
as §2, with “Inhibitors were dissolved in uv-grade absolute methanol.” left out
as §4

[8] = system: amyloglucosidase (EC 3.2.1.3); assay: Initial screening assay for enzyme inhibition, amyloglucosidase; assay type: biochemical, Aspergillus niger; details: amyloglucosidase, 2% MeOH
Experimental: as §1, §2, §3

[9] = system: β-mannosidase (EC 3.2.1.25); assay: Initial screening assay for enzyme inhibition, β-mannosidase; assay type: biochemical, snail; details: 2% MeOH
Experimental: as §1
as §2, with “Inhibitors were dissolved in uv-grade absolute methanol.” left out
as §4

[10] = target: T6, α-D-glucosidase (brewer's yeast) (Saccharomyces cerevisiae, UniProt P53341); assay: IC50 determination against α-D-glucosidase; assay type: biochemical
T6 construct: purchased Sigma; host or cells: brewer's yeast
T6 sequence (P53341 whole entry): as the sequence (P53341 whole entry) above
Experimental: as §2, with “Background absorption spectra were acquired using millipore filtered water as medium. Steady-state kinetics were maintained by adjusting the amount of enzyme used in each assay so that less than 10% of the substrate was converted to product for the duration of the reaction.” left out, “Inhibitors were dissolved in uv-grade absolute methanol.” left out

SMILES	% Enzyme activity relative to control [1]	activity versus naturally-occurring enantiomer, α-glucosidase (in words) ([2]; versus (+)-avarol)	remaining activity at 10 µM [2]	% Enzyme activity relative to control ([3]; 10 μM inhibitor)	remaining activity at 20 µM ([4]; 20 μM inhibitor)	remaining activity at 20 µM ([5]; 20 μM inhibitor)	remaining activity at 20 µM ([6]; 20 μM inhibitor)	remaining activity at 20 µM ([7]; 20 μM inhibitor)	% Enzyme activity relative to control ([8]; 20 μM inhibitor)	% Enzyme activity relative to control ([9]; 20 μM inhibitor)	pIC50 [10]	% Enzyme activity relative to control ([3]; 20 μM inhibitor)	remaining activity at 40 µM ([4]; 40 μM inhibitor)	remaining activity at 40 µM ([5]; 40 μM inhibitor)	remaining activity at 40 µM ([6]; 40 μM inhibitor)	remaining activity at 40 µM ([7]; 40 μM inhibitor)	% Enzyme activity relative to control ([8]; 40 μM inhibitor)	% Enzyme activity relative to control ([9]; 40 μM inhibitor)
CC1=CCC[C@@H]2[C@@](C)(Cc3cc(O)ccc3O)[C@H](C)CC[C@@]12C [(-)-avarol]	96%	significantly more active than the naturally-occurring enantiomer	43%	89%	99%	111%	108%	83%	94%	101%	5.12	–	–	–	–	–	–	–
CC1=CCC[C@H]2[C@](C)(Cc3cc(O)ccc3O)[C@@H](C)CC[C@]12C [(+)-avarol, (+)-Avarol]	102%	–	63%	–	–	–	–	–	–	–	< 4.70	102%	100%	104%	101%	82%	113%	106%
